{"source": "patent US7786129B2", "about": "“Piperazine derivatives of dialkyl oxindoles” (Egis Gyogyszergyar Nyrt, priority 2004, dated 2010)", "key": {"[1]": {"test_system": "Male Wistar rats", "experiment": "Vogel's drinking conflict test", "format": "in vivo", "settings": "ip, 0.5 h, rat, i.p. 30 min prior to test, increase in tolerated shocks, read-out: MED", "method": "(§1) The anxiolytic effect of the compounds according to the invention was investigated on rats according to Vogel's drinking conflict test and elevated plus-maze test (S. Pelow, P. Chopin, S. E. File, J. Briley: Neurosci. Methods 14, p. 149 (1985)).\nMale Wistar rats weighing 160-180 g were used for the experiment. The animals were deprived of drinking water for 48 hours and fasted for 24 hours prior to test. The test compounds or vehicle were administered intraperitoneally, 30 min prior to test. […] Following every 20 licks electric shocks (0.7 mA) were applied through the drinking spout during the 5 min test period. The number of punished licks were recorded. The effect of the test compounds was expressed as % increase in numbers of tolerated shocks. Minimal effective doses (MED) were determined for each compound."}, "[2]": {"test_system": "Male Mongolian gerbils", "experiment": "Neuroprotective effect in global ischemia test (bilateral carotid occlusion)", "format": "in vivo, Mongolian gerbil", "settings": "gerbil; for Effect (%): change of CA1 cell loss score vs. control, 30 mg/kg i.p.; for CA1 cell loss (score): 30 mg/kg i.p. 45 min after surgery, scored 4 days after surgery on 6-point scale", "method": "Male Mongolian gerbils weighing 60-90 g were used as test animals. The test compounds were administered intraperitoneally at a dose of 30 mg/kg 45 min after surgery. Test substances were suspended in 0.4% methylcellulose solution. In diethylether narcosis, the right and left common carotid arteries were exposed through an anterior midline cervical incision and isolated from the vagus nerves and the surrounding tissues. Full arrest of carotid blood flow was achieved by tightening an aneurysm clip for 3 min. During surgery the body temperature of the animals was kept at the individual preoperative level (37.5±0.5° C.) with the help of a heating pad and a heating lamp.\n4 days after the surgery the animals were anaesthetized with 60 mg/kg i.p nembutal (10 ml/kg) and perfused through the heart first with saline then with a fixative solution containing 0.1% glutaraldehyde, 4% paraformaldehyde and 0.2% picric acid in 0.1 M phosphate buffer (pH 7.4) for 30 min. The brain was removed from the skull and post fixed for at least 1 week at 4° C. in the same fixative solution.\nAlternate coronal sections of 60 μm thickness were cut from different levels of the dorsal hippocampus by a microtome. The sections were repeatedly washed in 0.1 M phosphate buffer (pH 7.4) and stained by silver impregnation. The sections were stored twice in a preparatory solution (2% sodium hydroxide and 0.875% ammonium hydroxide solution) for 5 minutes, impregnated for 10 minutes in 0.875% ammonium hydroxide and 0.5% silver nitrate solution) and placed into a washing solution (0.5% sodium carbonate and 0.01% ammonium nitrate dissolved in a 29.1% aqueous ethanol solution) twice for 2 minutes and once for one minute. The slices were then developed in 9.9% ethanol solution containing 1.5% formaldehyde and 0.01% ammonium nitrate and fixed three times for 3 minutes in a 0.5% acetic acid solution. The stained slices were placed in 0.1M phosphate buffer (pH 7.4) and chrome gelatine, applied on plates, dehydrated and treated with xylol. The cover plates were fixed with DPX glue (Fluka).\nThe sections were examined under light microscopy and the overall neuronal damage in the hippocampal CA1 subfield in both hippocampi was scored on a 6-point scale: (O) undamaged, (1)—0-10%; (2)—10-30%; (3)—30-50%; (4)—50-70%; (5)—70-90%; (6)—90-100% cell loss. Group differences between drug-treated and vehicle-treated groups were statistically analysed by Mann-Whitney U-test."}, "[3]": {"test_system": "dopamine release in the internal ear of guinea pig", "experiment": "Dopamine release in the internal ear (cochlear preparations, oxygen and glucose deprivation)", "settings": "guinea pig cochlear preparation, second stimulation after oxygen and glucose deprivation, FIG. 1", "method": "The study of the effect on the hearing impairment and tinnitus were performed in guinea pigs weighing 145-375 g (Toxicoop, Hungary) according to the method of Gáboiján et al. (Gáboiján, A., Lendvai, B, Vizi, E. S.: Neuroscience 90, p. 131 (1999)). The dopamine release in the internal ear, as a correlate of hearing impairment, was measured in samples from cochlear preparations (lateral olivocochlear efferents) with high-pressure liquid chromatography (HPLC). The samples were collected in every 3 minutes during 60 minutes (20 fractions). Electric field stimulation was generally applied during the 3rd and 13th fraction (S1, S2, 2 Hz, 360 shocks, 60 V; Grass Medical Instruments). In the respective experiments ischemia (oxygen and glucose deprivation, OGD) was mimicked by the perfusion of a buffer saturated with 100% N2 and containing sacharose instead of glucose. Results are expressed as a percent of dopamine release per fraction. Statistical analysis was performed by analysis of variance (ANOVA) followed by Tukey test.\nFrom the thus-obtained results the effect of the compound of Example 76 on the dopamine release in the internal ear of guinea pig is shown (FIG. 1). The initial stimulation (SI) evoked considerable dopamine release. […] This effect can be interpreted as an inhibition of hearing impairment."}, "[4]": {"molecular_target": "T1, 5-HT2C receptor (Sus scrofa, UniProt K7GSR7)", "T1 construct": "from tissue; host or cells: pig choroid plexus membrane preparation", "T1 sequence (K7GSR7 1-457)": "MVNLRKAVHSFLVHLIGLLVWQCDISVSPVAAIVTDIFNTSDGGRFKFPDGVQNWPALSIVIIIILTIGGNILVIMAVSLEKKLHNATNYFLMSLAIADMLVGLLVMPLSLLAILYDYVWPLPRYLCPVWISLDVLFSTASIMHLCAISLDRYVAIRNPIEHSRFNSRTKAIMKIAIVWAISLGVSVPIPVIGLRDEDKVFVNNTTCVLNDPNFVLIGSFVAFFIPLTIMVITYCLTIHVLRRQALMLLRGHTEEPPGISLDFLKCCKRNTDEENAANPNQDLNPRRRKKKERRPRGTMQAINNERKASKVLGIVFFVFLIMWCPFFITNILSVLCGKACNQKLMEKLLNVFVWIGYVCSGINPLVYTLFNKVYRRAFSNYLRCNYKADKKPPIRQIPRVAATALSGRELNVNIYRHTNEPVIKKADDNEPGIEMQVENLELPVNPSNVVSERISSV", "experiment": "5-HT2C receptor binding", "parameters": "species or system pig", "settings": "choroid plexus of pigs, ligand 3H-mesulergin 1.0 nM", "method": "(§2) Receptor bindings—with the exception of the 5-HT2C receptor binding—were determined by using cerebral region preparations of male Wistar rats weighing 120-200 g. For the preparation of 5-HT1A receptor binding frontal cortex preparations were used. The al receptor binding studies were performed from isolated frontal cortex pre-parations. For the 5-HT2C receptor binding experiments choroid plexus of pigs was used. The protein contents of membrane preparations were determined by the method of Lowry (1951).\n(§3) In the course of 5-HT2C and α1 receptor binding experiments the ligands were ^3H-mesulergin (1.0 nM) and ^3H-prazosine (0.3 nM), respectively. The non-specifically binding ligands were mianserine (1 μM and prazosine (1 μM), respectively.\n(§4) The IC50 value is the value of concentration where the difference between total and non-specific binding is 50% in the presence of a determined concentration of a specific ligand."}, "[5]": {"molecular_target": "T2, 5-HT1A receptor (Rattus norvegicus, UniProt P19327)", "T2 construct": "from tissue; host or cells: rat frontal cortex membrane preparation", "T2 sequence (P19327 1-422)": "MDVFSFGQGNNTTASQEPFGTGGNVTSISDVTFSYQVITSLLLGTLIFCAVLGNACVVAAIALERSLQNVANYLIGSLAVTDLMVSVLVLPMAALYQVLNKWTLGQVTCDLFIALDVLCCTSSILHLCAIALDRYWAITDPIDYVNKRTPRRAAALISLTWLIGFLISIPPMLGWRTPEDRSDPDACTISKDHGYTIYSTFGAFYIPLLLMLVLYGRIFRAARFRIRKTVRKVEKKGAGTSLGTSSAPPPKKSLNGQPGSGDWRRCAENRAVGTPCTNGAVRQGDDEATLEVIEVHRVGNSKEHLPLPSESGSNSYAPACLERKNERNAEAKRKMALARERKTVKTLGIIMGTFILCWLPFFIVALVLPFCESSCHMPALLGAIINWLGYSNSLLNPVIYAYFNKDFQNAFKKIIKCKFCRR", "experiment": "5-HT1A receptor binding", "settings": "rat frontal cortex preparation, ligand tritiated 8-OH-DPAT", "method": "as §2\n5-HT1A receptor binding was measured according to the method of Peroutka (Peroutka, S. J.: J. Neurochem. 47, p. 529 (1986)). The ligand was tritiated 8-hydroxy-N,N-dipropyl-2-aminotetraline (8-OH-DPAT). For the determination of non-specific binding 10 μM serotonin was applied. Incubation […] volume was 250 μl. Incubation was carried out at a temperature of 25 C for 30 minutes. The reaction was terminated by the addition of 9 ml of ice-cold 50 mM TRIS-HCl (pH 7.7) buffer and quick vacuum filtration using Whatman GFIB fibreglass filtering paper. Radioactivity of the filter boards was measured by liquid scintillation spectrometry.\nas §4"}, "[6]": {"molecular_target": "α1 receptor", "experiment": "α1 receptor binding experiment", "settings": "rat isolated frontal cortex preparation, ligand 3H-prazosine 0.3 nM", "method": "as §2, §3, §4"}, "[7]": {"test_system": "Male Sprague-Dawley rats", "experiment": "Elevated plus-maze test in rats", "format": "in vivo", "settings": "minimal effective dose, rat, p.o., 60 min after treatment, time in or entries into open arms", "description": "as §1\nA wooden cross elevated to 50 cm above the floor, 15 cm wide with 100 cm long arms was used for the experiments. The sides and ends of two opposite arms of the cross were equipped with 40 cm high walls, however, the arms were open to the 15×15 cm central area (closed arms). The two other opposite arms were not encircled by walls (open arms).\nMale Sprague-Dawley rats weighing 200-220 g were used for the experiments. The animals were placed in the central area of the equipment 60 min after treatment and the following four parameters have been observed for the 5 min test time: • time spent in the open arms (sec), • time spent in the closed arms (see), • number of entries into the open arms, • number of entries into the closed arms.\nThe effect was expressed as percent increase in either the time spent in the open arms or number of entries into the open arms. MEDs (minimal effective doses) were determined for each compound."}}, "note": "Where a name gives a salt, the structure may show the parent alone. Marks after values point to notes of the source that are not given here."}
{"smiles": "CCC1(CCCCN2CCN(c3ccc(Cl)cc3)CC2)C(=O)Nc2ccccc21", "note": "(stereo not drawn) [Example 76, 3-{4-[4-(4-Chlorophenyl)-piperazin-1-yl]-butyl}-3-ethyl-1,3-dihydro-2H-indol-2-one]", "values": [{"measurement": "minimal effective dose", "setting": "[1]", "value": 10, "unit": "mg/kg"}, {"measurement": "Effect (%)", "setting": "[2]", "value": "−52", "unit": "%"}, {"measurement": "CA1 cell loss (score)", "setting": "[2]", "value": "2.40* score"}, {"measurement": "melting point", "value": "145 to 146", "unit": "°C"}, {"measurement": "dopamine release in the internal ear", "setting": "[3]", "value": "the release stabilized at a significantly higher level"}]}
{"smiles": "CCC1(CCCCN2CCN(c3cccc(Cl)c3)CC2)C(=O)Nc2ccc(C)cc21", "note": "(stereo not drawn) [Example 78, 3-{4-[4-(3-Chlorophenyl)-piperazin-1-yl]-butyl}-3-ethyl-5-methyl-1,3-dihydro-2H-indol-2-one]", "values": [{"measurement": "IC50", "setting": "[4]", "value": "< 100", "unit": "nM"}, {"measurement": "IC50", "setting": "[5]", "value": "> 200", "unit": "nM"}, {"measurement": "IC50", "setting": "[6]", "value": "< 100", "unit": "nM"}, {"measurement": "melting point", "value": "142 to 144", "unit": "°C"}]}
{"smiles": "CCC1(CCCCN2CCN(c3cccc(Cl)c3)CC2)C(=O)Nc2ccc(F)cc21", "note": "(stereo not drawn) [Example 85, 3-{4-[4-(3-Chlorophenyl)-piperazin-1-yl]-butyl}-3-ethyl-5-fluoro-1,3-dihydro-2H-indol-2-one mono-hydrochloride]", "values": [{"measurement": "minimal effective dose", "setting": "[1]", "value": 5, "unit": "mg/kg"}, {"measurement": "Effect (%)", "setting": "[2]", "value": "−46", "unit": "%"}, {"measurement": "CA1 cell loss (score)", "setting": "[2]", "value": "2.70* score"}, {"measurement": "MED", "setting": "[7]", "value": 0.1, "unit": "mg/kg p.o."}]}
{"smiles": "CCC1(CCCCN2CCN(c3ccc(Cl)cc3)CC2)C(=O)Nc2c(Cl)cc(Cl)cc21", "note": "(stereo not drawn) [Example 87, 5,7-Dichloro-3-{4-[4-(4-chlorophenyl)-piperazin-1-yl]-butyl}-3-ethyl-1,3-dihydro-2H-indol-2-one]", "values": [{"measurement": "minimal effective dose", "setting": "[1]", "value": 5, "unit": "mg/kg"}, {"measurement": "IC50", "setting": "[5]", "value": "> 400", "unit": "nM"}, {"measurement": "melting point", "value": "152 to 154", "unit": "°C"}, {"measurement": "MED", "setting": "[7]", "value": 0.3, "unit": "mg/kg p.o."}]}
{"smiles": "CCC1(CCCCN2CCN(c3ccc(F)cc3)CC2)C(=O)Nc2ccccc21", "note": "(stereo not drawn) [Example 95, 3-Ethyl-3-{4-[4-(4-fluorophenyl)-piperazin-1-yl]-butyl}-1,3-dihydro-2H-indol-2-one]", "values": [{"measurement": "minimal effective dose", "setting": "[1]", "value": 10, "unit": "mg/kg"}, {"measurement": "IC50", "setting": "[5]", "value": "> 300", "unit": "nM"}, {"measurement": "melting point", "value": "118 to 119", "unit": "°C"}, {"measurement": "MED", "setting": "[7]", "value": 0.1, "unit": "mg/kg p.o."}]}
